Reference: US20240417390A1, “HYDROGEN SULFATE SALT OF A BCL-2 INHIBITOR, RELATED CRYSTALLINE FORM, METHOD FOR PREPARING THE SAME AND PHARMACEUTICAL COMPOSITIONS CONTAINING THE SAME” (LES LABORATOIRES SERVIER, priority 2018, published 2024)

Assay: Solubility in water
Assay type: physicochemical
Conditions: free base
Method: Although Compound A is a very promising drug, it is a difficult compound to formulate. In particular, it is […] in water (<0.01 mg/ml for the free base). […] In addition, different polymorphs can have different rates of uptake in the body, leading to lower or higher biological activity than desired. In extreme cases, an undesired polymorph can even show toxicity. […] However, even though polymorphism has been a subject for intensive investigations, understanding and controlling this phenomenon represents a substantial scientific challenge. It is hard to predict whether a given molecule will crystallize in one or several crystal forms, and to find conditions leading to such crystallization.

Cc1c(N(C(=O)c2cc(-c3cc(Cl)ccc3C(=O)N3Cc4ccccc4C[C@H]3CN3CCOCC3)n(C)c2C)c2ccc(O)cc2)cc(C#N)n1C [Compound A, 5-(5-chloro-2-{[(3S)-3-(morpholin-4-ylmethyl)-3,4-dihydroisoquinolin-2(1H)-yl]carbonyl}phenyl)-N-(5-cyano-1,2-dimethyl-1H-pyrrol-3-yl)-N-(4-hydroxyphenyl)-1,2-dimethyl-1H-pyrrole-3-carboxamide]
solubility: < 10 µg/mL
